From patent publication US7132536B2, “Triaza- and tetraaza-anthracenedione derivatives, their preparation and their use as pharmaceuticals” (Sanofi-aventis Deutschland GmbH, priority 2003, dated 2006)
Where a name gives a salt, the structure may show the parent alone.

System: eNOS promoter
Test: Activation of eNOS transcription (eNOS promoter-luciferase reporter gene assay)
Assay type: cell-based
Conditions: human endothelial cell line stably transfected with eNOS promoter-firefly luciferase construct; 18 h incubation; EC50 determined graphically; read-out: EC50 of transcription induction ratio (TIR)
Description: Activation of eNOS transcription was measured as described in detail by Li et al., “Activation of protein kinase C alpha and/or epsilon enhances transcription of the human endothelial nitric oxide synthase gene”, Mol. Pharmacol. 53 (1998) 630. Briefly, a 3.5 kB long fragment 5′ of the starting codon of the eNOS gene was cloned, sequenced and cloned in firefly luciferase expression plasmids to monitor activation of the eNOS promoter by reporter gene activity. A human endothelial cell line stable transfected and expressing this promoter-reporter construct was used for compound testing. Cells were incubated for 18 h with the compounds.
All compounds were dissolved in sterile dimethylsulfoxide (DMSO). A final concentration of 0.5% DMSO in complete medium was allowed. Induction of reporter gene expression in these cells was measured using a standard luciferase assay system (Promega, Cat. No. E150) according to the manufacturer's instructions. Luciferase induction in cells incubated with compounds were compared to those incubated with solvent alone. The ratio of both activities (transcription induction ratio, TIR) was plotted as a function of compound concentration. Typically, TIR values started at low concentrations at a ratio of 1, indicating no compound effect, and extended up to a maximum TIR value TIR(max) which indicates the increase of the eNOS transcription. EC50 values of transcription induction ratios as a function of compound concentration were determined graphically.

Structure (SMILES) | EC50 [µM]
CC(C)[C@H]1C(=O)N(Cc2ccc(C(C)(C)C)cc2)CC2N(CCCn3ccnc3)c3ccc([N+](=O)[O-])cc3C(=O)N21 (stereo partly drawn) [Example 2, (4S)-2-(4-tert-Butylbenzyl)-9-(3-(imidazol-1-yl)propyl)-4-isopropyl-6-nitro-1,2,9,9a-tetrahydro-2,4a,9-triaza-anthracene-3,10(4H)-dione trifluoroacetic acid salt] | 1.2
CC(C)[C@H]1C(=O)N(Cc2ccc(C(C)(C)C)cc2)CC2N(CCCn3ccnc3)c3ccc(C(F)(F)F)cc3C(=O)N21 (stereo partly drawn) [Example 15, (4S)-2-(4-tert-Butylbenzyl)-9-(3-(imidazol-1-yl)propyl)-4-isopropyl-6-trifluoromethyl-1,2,9,9a-tetrahydro-2,4a,9-triaza-anthracene-3,10(4H)-dione trifluoroacetic acid salt] | 4
CC(C)[C@H]1C(=O)N(CCCCc2ccccc2)CC2N(CCCn3ccnc3)c3ccc(C(F)(F)F)cc3C(=O)N21 (stereo partly drawn) [Example 10, (4S)-9-(3-(Imidazol-1-yl)propyl)-4-isopropyl-2-(4-phenylbutyl)-6-trifluoromethyl-1,2,9,9a-tetrahydro-2,4a,9-triaza-anthracene-3,10(4H)-dione trifluoroacetic acid salt] | 12
CC(C)[C@H]1C(=O)N(Cc2ccc(C(F)(F)F)cc2)CC2N(CCCn3ccnc3)c3ccc(C(F)(F)F)cc3C(=O)N21 (stereo partly drawn) [Example 11, (4S)-9-(3-(Imidazol-1-yl)propyl)-4-isopropyl-6-trifluoromethyl-2-(4-trifluoromethyl-benzyl)-1,2,9,9a-tetrahydro-2,4a,9-triaza-anthracene-3,10(4H)-dione trifluoroacetic acid salt] | 20
Cc1ccc2c(n1)C(=O)N1C(C(C)C)C(=O)N(Cc3ccc(C(C)(C)C)cc3)CC1N2CCCn1ccnc1 (stereo not drawn) [Example 37, 6-(4-tert-Butylbenzyl)-10-(3-(imidazol-1-yl)propyl)-8-isopropyl-2-methyl-5,6,10,10a-tetrahydro-1,6,8a,10-tetraaza-anthracene-7,9(8H)-dione trifluoroacetic acid salt] | 100
O=C1[C@H](C2CCCCC2)N2C(=O)c3cc(C(F)(F)F)ccc3N(CCCn3ccnc3)C2CN1CCCCc1ccccc1 (stereo partly drawn) [Example 13, (4S)-4-Cyclohexyl-9-(3-(imidazol-1-yl)propyl)-2-(4-phenylbutyl)-6-trifluoromethyl-1,2,9,9a-tetrahydro-2,4a,9-triaza-anthracene-3,10(4H)-dione trifluoroacetic acid salt] | 7
CCC1C(=O)N(Cc2ccc(C(C)(C)C)cc2)CC2N(CCc3ccncc3)c3ccc([N+](=O)[O-])cc3C(=O)N12 (stereo not drawn) [Example 40, 2-(4-tert-Butylbenzyl)-4-ethyl-6-nitro-9-(2-(pyridin-4-yl)ethyl)-1,2,9,9a-tetrahydro-2,4a,9-triaza-anthracene-3,10(4H)-dione trifluoroacetic acid salt] | 0.22
COc1ccc(CN2CC3N(CCCn4ccnc4)c4ccc(C(F)(F)F)cc4C(=O)N3[C@@H](C(C)C)C2=O)c(OC)c1 (stereo partly drawn) [Example 14, (4S)-2-(2,4-Dimethoxybenzyl)-9-(3-(imidazol-1-yl)propyl)-4-isopropyl-6-trifluoromethyl-1,2,9,9a-tetrahydro-2,4a,9-triaza-anthracene-3,10(4H)-dione trifluoroacetic acid salt] | 12
CC(C)[C@H]1C(=O)N(CCCCc2ccccc2)CC2N(CCCn3ccnc3)c3ccc([N+](=O)[O-])cc3C(=O)N21 (stereo partly drawn) [Example 1, (4S)-9-(3-(Imidazol-1-yl)propyl)-4-isopropyl-6-nitro-2-(4-phenylbutyl)-1,2,9,9a-tetrahydro-2,4a,9-triaza-anthracene-3,10(4H)-dione trifluoroacetic acid salt] | 2.2
CC(C)C1C(=O)N(Cc2ccc(C(C)(C)C)cc2)CC2N(CCCn3ccnc3)c3cccnc3C(=O)N12 (stereo not drawn) [Example 36, 6-(4-tert-Butylbenzyl)-10-(3-(imidazol-1-yl)propyl)-8-isopropyl-5,6,10,10a-tetrahydro-1,6,8a,10-tetraaza-anthracene-7,9(8H)-dione trifluoroacetic acid salt] | 100
O=C1[C@H](Cc2cccc(F)c2)N2C(=O)c3cc([N+](=O)[O-])ccc3N(CCCn3ccnc3)C2CN1CCCCc1ccccc1 (stereo partly drawn) [Example 4, (4S)-4-(3-Fluorobenzyl)-9-(3-(imidazol-1-yl)propyl)-6-nitro-2-(4-phenylbutyl)-1,2,9,9a-tetrahydro-2,4a,9-triaza-anthracene-3,10(4H)-dione trifluoroacetic acid salt] | 8
CC(C)C1C(=O)N(Cc2ccc(C(C)(C)C)cc2)CC2N(CCCn3ccnc3)c3ccc([N+](=O)[O-])cc3C(=O)N12 (stereo not drawn) [Example 39, 2-(4-tert-Butylbenzyl)-9-(3-(imidazol-1-yl)propyl)-4-isopropyl-6-nitro-1,2,9,9a-tetrahydro-2,4a,9-triaza-anthracene-3,10(4H)-dione trifluoroacetic acid salt] | 0.29
CC(C)[C@H]1C(=O)N(Cc2cccc3ccccc23)CC2N(CCCn3ccnc3)c3ccc([N+](=O)[O-])cc3C(=O)N21 (stereo partly drawn) [Example 3, (4S)-9-(3-(Imidazol-1-yl)propyl)-4-isopropyl-2-(naphth-1-ylmethyl)-6-nitro-1,2,9,9a-tetrahydro-2,4a,9-triaza-anthracene-3,10(4H)-dione trifluoroacetic acid salt] | 20
O=C1[C@H](Cc2c[nH]cn2)N2C(=O)c3cc([N+](=O)[O-])ccc3N(Cc3ccc(OC(F)(F)F)cc3)C2CN1CCCCc1ccccc1 (stereo partly drawn) [Example 9, (4S)-4-(1H-Imidazol-4-ylmethyl)-6-nitro-2-(4-phenylbutyl)-9-(4-trifluoromethoxy-benzyl)-1,2,9,9a-tetrahydro-2,4a,9-triaza-anthracene-3,10(4H)-dione trifluoroacetic acid salt] | 8.4
O=C1[C@H](Cc2c[nH]cn2)N2C(=O)c3cc([N+](=O)[O-])ccc3N(CCCCc3ccccc3)C2CN1CCCCc1ccccc1 (stereo partly drawn) [Example 8, (4S)-4-(1H—Imidazol-4-ylmethyl)-6-nitro-2,9-bis(4-phenylbutyl)-1,2,9,9a-tetrahydro-2,4a,9-triaza-anthracene-3,10(4H)-dione trifluoroacetic acid salt] | 6
O=C1[C@H](C2CCCCC2)N2C(=O)c3cc([N+](=O)[O-])ccc3N(CCCn3ccnc3)C2CN1CCCCc1ccccc1 (stereo partly drawn) [Example 5, (4S)-4-Cyclohexyl-9-(3-(imidazol-1-yl)propyl)-6-nitro-2-(4-phenylbutyl)-1,2,9,9a-tetrahydro-2,4a,9-triaza-anthracene-3,10(4H)-dione trifluoroacetic acid salt] | 2.8
CC[C@H]1C(=O)N(Cc2ccc(C(C)(C)C)cc2)CC2N(CCCn3ccnc3)c3ccc([N+](=O)[O-])cc3C(=O)N21 (stereo partly drawn) [Example 38, (4S)-2-(4-tert-Butylbenzyl)-4-ethyl-9-(3-(imidazol-1-yl)propyl)-6-nitro-1,2,9,9a-tetrahydro-2,4a,9-triaza-anthracene-3,10(4H)-dione trifluoroacetic acid salt] | 0.4
CC(C)[C@H]1C(=O)N(Cc2ccc(C(F)(F)F)cc2)CC2N(CCc3ccncc3)c3ccc(C(F)(F)F)cc3C(=O)N21 (stereo partly drawn) [Example 12, (4S)-4-Isopropyl-9-(2-(pyridin-4-yl)ethyl)-6-trifluoromethyl-2-(4-trifluoromethylbenzyl)-1,2,9,9a-tetrahydro-2,4a,9-triaza-anthracene-3,10(4H)-dione trifluoroacetic acid salt] | 20
O=C1[C@H](Cc2cccc(F)c2)N2C(=O)c3cc(C(F)(F)F)ccc3N(CCCn3ccnc3)C2CN1CCCCc1ccccc1 (stereo partly drawn) [Example 16, (4S)-4-(3-Fluorobenzyl)-9-(3-(imidazol-1-yl)propyl)-2-(4-phenylbutyl)-6-trifluoromethyl-1,2,9,9a-tetrahydro-2,4a,9-triaza-anthracene-3,10(4H)-dione trifluoroacetic acid salt] | 8
CC(C)[C@H]1C(=O)N(CCCCc2ccccc2)CC2N(CCc3ccncc3)c3ccc([N+](=O)[O-])cc3C(=O)N21 (stereo partly drawn) [Example 7, (4S)-4-Isopropyl-6-nitro-2-(4-phenylbutyl)-9-(2-(pyridin-4-yl)ethyl)-1,2,9,9a-tetrahydro-2,4a,9-triaza-anthracene-3,10(4H)-dione trifluoroacetic acid salt] | 20
COc1ccc(C[C@H]2C(=O)N(CCCCc3ccccc3)CC3N(CCCn4ccnc4)c4ccc([N+](=O)[O-])cc4C(=O)N32)cc1OC (stereo partly drawn) [Example 6, (4S)-4-(3,4-Dimethoxybenzyl)-9-(3-(imidazol-1-yl)propyl)-6-nitro-2-(4-phenylbutyl)-1,2,9,9a-tetrahydro-2,4a,9-triaza-anthracene-3,10(4H)-dione trifluoroacetic acid salt] | 24
